# Literature values as cited in US20090176850A1, “Novel 2-Amino-Imidazole-4-One Compounds And Their Use In The Manufacture Of A Medicament To Be Used In The Treatment Of Cognitive Impairment, Alzheimer's Disease, Neurodegeneration And Dementia” (ASTRAZENECA AB, priority 2005, published 2009).
# Non-standard residues stand in square brackets, D forms with d. Residues, ends and D or L forms follow the SMILES beside them. *: point of attachment. Sta = CC(C)C[C@H](N)[C@@H](O)CC(=O)O; Isovaleryl = CC(C)CC(=O)*
# Target: BACE (Homo sapiens, UniProt P56817)
# Details: Vassar et al, 1999
# Sequence of BACE (P56817 46-501): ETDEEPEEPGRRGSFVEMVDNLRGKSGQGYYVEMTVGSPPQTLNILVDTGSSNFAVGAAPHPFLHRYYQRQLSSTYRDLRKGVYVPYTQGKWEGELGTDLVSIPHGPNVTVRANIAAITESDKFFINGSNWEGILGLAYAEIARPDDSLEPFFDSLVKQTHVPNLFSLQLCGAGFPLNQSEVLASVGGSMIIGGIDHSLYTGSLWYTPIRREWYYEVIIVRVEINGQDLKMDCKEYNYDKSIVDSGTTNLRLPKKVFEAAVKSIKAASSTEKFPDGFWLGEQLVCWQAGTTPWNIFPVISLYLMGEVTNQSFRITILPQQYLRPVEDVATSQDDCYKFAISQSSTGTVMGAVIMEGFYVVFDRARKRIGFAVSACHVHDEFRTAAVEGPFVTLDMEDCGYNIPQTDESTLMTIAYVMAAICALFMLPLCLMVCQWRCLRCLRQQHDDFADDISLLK
smiles,measurement,value
CC(C)CC(=O)N[C@H](C(=O)N[C@H](C(=O)N[C@@H](CC(C)C)[C@@H](O)CC(=O)N[C@@H](C)C(=O)N[C@@H](CC(C)C)[C@@H](O)CC(=O)O)C(C)C)C(C)C [pepstatin] (Isovaleryl-VV[Sta]A[Sta]-OH),inhibition of BACE,inhibited weakly
